IC50 data for 15 compounds are collected here from patent US10138222B2, “Substituted benzamides as RIPK2 inhibitors” (Boehringer Ingelheim International GmbH, priority 2016, dated 2018).

One may read the IC50 as the concentration that gives 50% inhibition. Higher therefore signals lower potency.

RIPK2, sequence (O43353 whole entry): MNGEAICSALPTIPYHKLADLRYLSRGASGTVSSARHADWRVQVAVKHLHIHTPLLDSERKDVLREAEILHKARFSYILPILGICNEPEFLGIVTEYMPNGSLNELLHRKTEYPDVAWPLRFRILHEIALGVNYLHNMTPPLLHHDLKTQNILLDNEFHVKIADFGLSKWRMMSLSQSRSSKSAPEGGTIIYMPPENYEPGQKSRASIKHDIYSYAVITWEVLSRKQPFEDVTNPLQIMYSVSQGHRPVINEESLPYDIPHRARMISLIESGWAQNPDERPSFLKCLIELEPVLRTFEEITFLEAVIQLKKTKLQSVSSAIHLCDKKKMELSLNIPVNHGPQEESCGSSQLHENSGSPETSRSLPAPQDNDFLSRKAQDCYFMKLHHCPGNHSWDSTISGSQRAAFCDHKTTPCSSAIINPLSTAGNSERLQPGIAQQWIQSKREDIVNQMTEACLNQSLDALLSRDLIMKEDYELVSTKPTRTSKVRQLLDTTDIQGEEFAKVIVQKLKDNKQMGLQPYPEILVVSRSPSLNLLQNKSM

In the assay the target is RIPK2 (Homo sapiens (Human), UniProt O43353). Description: RIPK2 inhibition, ADP-Glo Kinase Assay. The settings on record: 8His-RIPK2 FL enzyme 8 nM, ATP 5 μM, 15 minutes pre-incubation, 60 minutes at 37° C., luminescence. It is filed as biochemical. The method, then:
RIPK2 inhibition for compounds in Table 1 are shown in Table 3 and measured using the following method:
Materials: White, 384-well optiplates (cat.no. 6007290) were purchased from PerkinElmer. The V9103X ADP-Glo Kinase Assay Custom (including ultra-pure ATP) was purchased from Promega. 8His-RIPK2 FL was prepared in-house. All other materials were of highest grade commercially available.
Method: In a 384-well plate, test compound diluted in assay buffer (1% DMSO final) is mixed with 8His-RIPK2 FL enzyme (final concentration of 8 nM). After 15 minutes of pre-incubation at RT, ATP dissolved in assay buffer is added (final concentration 5 μM). The mixture is incubated for 60 minutes at 37° C. in a humidified incubator. Then, ADP Glo Reagent is added, followed by a 40 minute incubation at rt. Finally, Kinase Detection Reagent is added and the entire mixture is incubated for 40 min at RT. The luminescence signal is measured with an Envision reader to determine the amount of ADP produced. Assay buffer: 25 mM HEPES (4-(2-hydroxyethyl)-1-piperazinethanesulfonic acid), 0.1% BSA (bovine serum albumin), 10 mM MgCl2, 5 mM MnCl2, 50 mM KCl, 0.01% CHAPS (3-[(3-cholamidopropyl)dimethylammonio]-1-propanesulfonate), 10 μM Na3VO4, 1 mM DTT (dithiothreitol), pH 7.5 All plates contain wells with vehicle controls instead of compound (1% DMSO) as reference for the high signal (100% CTL (100% of control), high signal), and wells without enzyme as reference for low signal (0% CTL, low signal). The luminescent signal generated is proportional to the ADP produced and is correlated with enzyme activity. The analysis of the data is performed by the calculation of the percentage of ADP production in the presence of the test compound and RIPK2 as compared to the ADP production in the presence of RIPK2 plus 50 μM Gefitinib. (RLU (relative luminescence units) (sample)−RLU(low control))*100/(RLU(high value)−RLU(low control)) [RLU=relative luminescence units].
Consider `Cc1ccc(C(=O)NC2CC2)cc1-c1cn(-c2cncc(C3CC3)c2)cn1` [Example 71, N-cyclopropyl-3-[1-(5-cyclopropyl-pyridin-3-yl)-1H-imidazol-4-yl]-4-methylbenzamide], for which the IC50 stood at 2.7 nM.
The result for `Cc1ccc(C(=O)NC2CC2)cc1-c1cnn(-c2cncc(CC#N)c2)c1` [Example 52, 3-{1-[5-(cyanomethyl)pyridin-3-yl]-1H-pyrazol-4-yl}-N-cyclopropyl-4-methylbenzamide] reads 56 nM.
The result for `CO[C@@H]1CN(C)CC[C@@H]1Nc1cncc(-n2cc(-c3cc(C(=O)NC4CC4)c(F)cc3Cl)cn2)c1` [Example 173, 4-Chloro-N-cyclopropyl-2-fluoro-5-{1-[5-((3R,4S)-3-methoxy-1-methyl-piperidin-4-ylamino)-pyridin-3-yl]-1H-pyrazol-4-yl}-benzamide] reads 1.8 nM; that for `Cc1cc(F)c(C(=O)NC2CC2)cc1-c1cnn(-c2cncc(N[C@@H]3CCN(C)C[C@@H]3F)c2)c1` [Example 170], 1.8 nM; that for `Cc1ccc(C(=O)NC2CC2)cc1-c1cnn(-c2cncc(NC(=O)CC(C)C)c2)c1` [Example 114, N-cyclopropyl-4-methyl-3-{1-[5-(3-methylbutanamido)pyridin-3-yl]-1H-pyrazol-4-yl}benzamide], 2.7 nM.
The value for `CC(=O)Nc1cncc(-n2cc(-c3cc(C(=O)NC4CC4)ccc3C)cn2)c1` [Example 111, N-cyclopropyl-3-[1-(5-acetamido-pyridin-3-yl)-1H-pyrazol-4-yl]-4-methylbenzamide] was 5.3 nM.
In the case of `Cc1ccc(C(=O)NC2CC2)cc1-c1cnn(-c2cncc(NC3CCN(C4CCOCC4)CC3)c2)c1` [Example 162, N-cyclopropyl-4-methyl-3-[1-(5-{[1-(oxan-4-yl)piperidin-4-yl]amino}pyridin-3-yl)-1H-pyrazol-4-yl] benzamide], the IC50 was determined as 2.3 nM.
The value for `Cc1cc(F)c(C(=O)NC2CC2)cc1-c1cnn(-c2cncc(NC3CCN(C4COC4)CC3)c2)c1` [Example 68, N-cyclopropyl-2-fluoro-4-methyl-5-[1-(5-{[1-(oxetan-3-yl)piperidin-4-yl]amino}pyridin-3-yl)-1H-pyrazol-4-yl]benzamide] was 1.1 nM.
`CCC(=O)Nc1cncc(-n2cc(-c3cc(C(=O)NC4CC4)ccc3C)cn2)c1` [Example 117, N-cyclopropyl-4-methyl-3-[1-(5-propanamidopyridin-3-yl)-1H-pyrazol-4-yl]benzamide] yielded an IC50 of 3.4 nM.
The result for `Cc1ccc(C(=O)NC2CC2)cc1-c1cnn(-c2cncc(N3CCOCC3)c2)c1` [Example 98, N-cyclopropyl-4-methyl-3-{1-[5-(morpholin-4-yl)pyridin-3-yl]-1H-pyrazol-4-yl}benzamide] reads 10 nM.
Regarding `Cc1ccc(C(=O)NC2CC2)cc1-c1cn(-c2cncc(NC3CCN(C4COC4)CC3)c2)cn1` [Example 79, N-cyclopropyl-4-methyl-3-[1-(5-{[1-(oxetan-3-yl)piperidin-4-yl]amino}pyridin-3-yl)-1H-imidazol-4-yl] benzamide], half-maximal inhibition (IC50) required 1.4 nM.
The result for `Cc1ccc(C(=O)NC2CC2)cc1-c1cnn(-c2cncc(NCC3CC3)c2)c1` [Example 99, N-cyclopropyl-3-(1-{5-[(cyclopropylmethyl)amino]pyridin-3-yl}-1H-pyrazol-4-yl)-4-methyl-benzamide] reads 2.6 nM; that for `Cc1ccc(C(=O)NC2CC2)cc1-c1cnn(-c2cncc(N(C)C)c2)c1` [Example 44, N-cyclopropyl-3-{1-[5-(dimethylamino)pyridin-3-yl]-1H-pyrazol-4-yl}-4-methylbenzamide], 6.4 nM; that for `COc1cncc(-n2cnc(-c3cc(C(=O)NC4CC4)ccc3C)c2)c1` [Example 53, N-cyclopropyl-3-[1-(5-methoxypyridin-3-yl)-1H-imidazol-4-yl]-4-methyl-benzamide], 7.6 nM.
The result for `Cc1ccc(C(=O)NC2CC2)cc1-c1cnn(-c2cncc(CC(=O)O)c2)c1` [Example 51, 2-(5-{4-[5-(cyclopropylcarbamoyl)-2-methylphenyl]-1H-pyrazol-1-yl}pyridin-3-yl)acetic acid] reads 240 nM.
